# From ChEMBL document CHEMBL1129489
# Tests used:
# [1] = molecular target: D(2) dopamine receptor (Rattus norvegicus) (UniProt P61169)
# [2] = molecular target: D(1A) dopamine receptor (Rattus norvegicus) (UniProt P18901); test: (§1) Low-affinity agonist dissociation constant against striatal Dopamine receptor D1A; type: functional
# [3] = molecular target: D(1A) dopamine receptor (Homo sapiens) (UniProt P21728)
# [4] = molecular target: D(2) dopamine receptor (Homo sapiens) (UniProt P14416)
# [5] = molecular target: D(1A) dopamine receptor (Homo sapiens) (UniProt P21728); test: as §1; type: functional
# [6] = molecular target: D(1A) dopamine receptor (Homo sapiens) (UniProt P21728); conditions: COS-7
# [7] = molecular target: D(1A) dopamine receptor (Homo sapiens) (UniProt P21728); conditions: COS-7; remark: listed apart in the source
# [8] = molecular target: D(1A) dopamine receptor (Homo sapiens) (UniProt P21728); remark: listed apart in the source
# D(1A) dopamine receptor (Homo sapiens), sequence (P21728 whole entry): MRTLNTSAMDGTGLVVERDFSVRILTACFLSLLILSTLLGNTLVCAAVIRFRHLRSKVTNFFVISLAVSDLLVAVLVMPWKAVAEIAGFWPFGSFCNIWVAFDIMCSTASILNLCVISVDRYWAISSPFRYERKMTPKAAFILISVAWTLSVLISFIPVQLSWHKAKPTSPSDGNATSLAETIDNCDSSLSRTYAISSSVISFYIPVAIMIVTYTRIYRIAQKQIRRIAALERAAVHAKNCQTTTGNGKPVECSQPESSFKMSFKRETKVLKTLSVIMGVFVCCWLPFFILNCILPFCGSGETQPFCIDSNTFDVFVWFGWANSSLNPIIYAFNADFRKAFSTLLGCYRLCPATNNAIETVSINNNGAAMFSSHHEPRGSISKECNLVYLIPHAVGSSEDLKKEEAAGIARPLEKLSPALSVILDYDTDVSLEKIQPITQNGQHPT
# D(2) dopamine receptor (Rattus norvegicus), sequence (P61169 whole entry): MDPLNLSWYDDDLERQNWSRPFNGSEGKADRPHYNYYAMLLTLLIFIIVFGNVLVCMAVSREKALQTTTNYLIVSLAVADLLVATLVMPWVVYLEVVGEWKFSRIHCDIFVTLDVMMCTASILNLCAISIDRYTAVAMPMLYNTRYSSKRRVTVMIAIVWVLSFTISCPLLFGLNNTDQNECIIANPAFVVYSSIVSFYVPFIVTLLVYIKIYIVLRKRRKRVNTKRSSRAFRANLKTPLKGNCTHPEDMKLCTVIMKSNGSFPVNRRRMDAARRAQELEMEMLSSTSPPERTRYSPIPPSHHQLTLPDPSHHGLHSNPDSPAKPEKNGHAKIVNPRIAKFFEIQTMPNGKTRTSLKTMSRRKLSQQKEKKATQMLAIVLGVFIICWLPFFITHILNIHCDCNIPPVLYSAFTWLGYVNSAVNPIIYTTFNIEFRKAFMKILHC
# D(1A) dopamine receptor (Rattus norvegicus), sequence (P18901 whole entry): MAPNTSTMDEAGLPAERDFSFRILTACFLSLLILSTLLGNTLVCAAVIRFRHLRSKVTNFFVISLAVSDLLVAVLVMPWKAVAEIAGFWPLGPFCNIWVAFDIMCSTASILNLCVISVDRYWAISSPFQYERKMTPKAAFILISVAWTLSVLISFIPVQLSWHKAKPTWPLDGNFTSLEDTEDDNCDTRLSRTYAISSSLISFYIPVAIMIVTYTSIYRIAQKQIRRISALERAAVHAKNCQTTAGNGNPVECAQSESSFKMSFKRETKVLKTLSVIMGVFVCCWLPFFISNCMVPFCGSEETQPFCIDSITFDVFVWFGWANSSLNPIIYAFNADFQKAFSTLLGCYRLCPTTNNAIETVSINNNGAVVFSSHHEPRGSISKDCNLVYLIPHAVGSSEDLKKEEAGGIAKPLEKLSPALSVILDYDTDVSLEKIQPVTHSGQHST
# D(2) dopamine receptor (Homo sapiens), sequence (P14416 whole entry): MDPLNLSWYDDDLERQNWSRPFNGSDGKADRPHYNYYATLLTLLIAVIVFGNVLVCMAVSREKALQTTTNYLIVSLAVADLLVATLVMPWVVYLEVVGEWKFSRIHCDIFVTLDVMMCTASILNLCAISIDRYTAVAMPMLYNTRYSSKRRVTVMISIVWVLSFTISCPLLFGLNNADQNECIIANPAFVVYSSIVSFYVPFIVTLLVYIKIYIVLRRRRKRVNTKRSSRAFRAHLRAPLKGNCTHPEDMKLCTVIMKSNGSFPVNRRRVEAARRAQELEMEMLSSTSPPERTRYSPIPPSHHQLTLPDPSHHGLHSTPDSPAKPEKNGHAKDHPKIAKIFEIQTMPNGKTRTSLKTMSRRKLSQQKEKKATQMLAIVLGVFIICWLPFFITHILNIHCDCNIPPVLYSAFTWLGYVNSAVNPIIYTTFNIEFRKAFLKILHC
compound,measurement,setting,value
CN(C)C1CCc2cc(O)c(O)cc2C1 (stereo unspecified),KL,[1],0.463 µM
same,KL,[2],734 nM
NCCc1ccc(O)c(O)c1,KL,[2],580 nM
NCCc1c[nH]c2ccc(O)cc12,KL,[1],183 µM
same,KL,[2],6540 nM
CN1CCc2cccc3c2[C@H]1Cc1ccc(O)c(O)c1-3,KL,[3],206 nM
same,KL,[4],127 nM
CCCN1CCc2cccc3c2[C@H]1Cc1ccc(O)c(O)c1-3,KL,[1],0.023 µM
same,KL,[2],625 nM
CCCN1CCc2cccc3c2[C@@H]1Cc1ccc(O)c(O)c1-3,KL,[5],5.2 µM
NC[C@H](O)c1ccc(O)c(O)c1,Log 1/Kd,[6],4.69
same,KL,[1],126 µM
same,KL,[2],4140 nM
CNC[C@H](O)c1ccc(O)c(O)c1,KL,[1],128 µM
same,KL,[2],980 nM
Oc1cc2c(cc1O)[C@@H](c1ccccc1)CNCC2,KL,[2],381 nM
Oc1ccc(C2CNCCc3c2cc(O)c(O)c3Cl)cc1 (stereo unspecified),KL,[1],1 µM
same,KL,[2],21 nM
C=CCN1CCc2c(cc(O)c(O)c2Cl)[C@@H](c2ccccc2)C1,Log 1/KL,[7],-1.92
same,KL,[8],83 nM
Oc1ccc([C@@H]2CNCCc3c2cc(O)c(O)c3Cl)cc1,KL,[2],1340 nM
